Data as given in patent publication US20150265680A1, “THERAPEUTIC AGENT FOR AMYOTROPHIC LATERAL SCLEROSIS” (DAIICHI SANKYO COMPANY, LIMITED, priority 2012, published 2015).
Marks after values point to notes of the source that are not given here. Where a SMILES comes first, the peptide text is derived from it. Where no end group is shown, it is not given here. [ ]: non-standard residue; d: D form. The star is where a group is joined. d2Nal = N[C@H](Cc1ccc2ccccc2c1)C(=O)O; Octanoyl = CCCCCCCC(=O)*

What was measured:
[1] = tested on: SOD1^G93A mice; experiment: Repeated subcutaneous GHRP-6 or anamorelin from the age of 10 weeks: body weight, food intake, survival (Example 9); assay type: in vivo, mouse; settings: mean ± SE; for Survival period: 1 mg/kg subcutaneously twice a day from age 10 weeks until death; for Amount of change in body weight / Food intake: 1 mg/kg subcutaneously twice a day from age 10 weeks, after 5-weeks of administration
Procedure: In the experiment, 10-week-old SOD1^G93A mice were used, which were divided into 3 groups: a vehicle group, a GHRP-6 group, and an anamorelin group. GHRP-6 (1 mg/kg), anamorelin (1 mg/kg), or a vehicle (5% mannitol solution) was subcutaneously administered thereto twice a day from the age of 10 weeks until death. Their body weight and feed weight were measured before the start of administration and after 5-weeks of administration to calculate the amount of change in body weight and food intake. The survival period of each individual was also analyzed.

[2] = tested on: rat adrenal pheochromocytoma-derived PC-12 cells; settings: cited from earlier work
[3] = tested on: SOD1^G93A mice; experiment: Continuous subcutaneous human ghrelin from the age of 10 weeks: body weight, food intake, skeletal muscle mass, cholesterol, muscle strength, survival (Example 3); assay type: in vivo, mouse
Procedure: In some Examples, the WT mice were also used.
(§1) In the experiment, 10-week-old SOD1^G93A mice were used, which were divided into 2 groups: a vehicle group and a human ghrelin group. Human ghrelin (50 μg/day, approximately 2 mg/kg/day) was dissolved in a vehicle (saline solution) to prepare a dosing solution. An osmotic pump (ALZET® MINI-OSMOTIC PUMP MODEL 1004, DURECT Corporation) filled with the dosing solution or a saline solution was subcutaneously implanted into the back of each mouse for continuous subcutaneous administration. The administration was started from the age of 10 weeks and continued to the live individuals with the osmotic pump replaced with a fresh one every 4 weeks.
Their body weight and feed weight was measured before the start of administration and after 8-weeks of administration to calculate the amount of change in body weight and the food intake. After 8-weeks of administration, the lower-body skeletal muscle masses of the mice were measured using X-ray CT (Latheta LCT-200, Hitachi Aloka Medical, Ltd.). The plasma total cholesterol concentrations were measured with Cholesterol E—Test Wako (Wako Pure Chemical Industries, Ltd.) using plasma separated from blood collected from the tail vein after 8-weeks of administration. The forelimb muscle strengths were measured using a rat/mouse simple sthenometer; 200 g scale (O'HARA & CO., LTD.) on the 16th week of age. The survival period of each individual was also analyzed.

[4] = tested on: SOD1^G93A mice; experiment: Motor neuron protective effect of continuous subcutaneous human ghrelin, Nissl-stained T9 spinal cord sections (Example 4); assay type: in vivo, mouse; settings: relative to WT control group = 100%; 50 μg/day continuous subcutaneous, 7 weeks after start, T9 anterior horn; mean ± SE
Procedure: In the experiment, 10-week-old SOD1^G93A and WT mice were used. […] Vehicle-administered WT mice were used as a control group. Human ghrelin (50 μg/day, approximately 2 mg/kg/day) was dissolved in a vehicle (saline solution) to prepare a dosing solution. An osmotic pump (ALZET® MINI-OSMOTIC PUMP MODEL 1004, DURECT Corporation) filled with the dosing solution or a saline solution was subcutaneously implanted into the back of each mouse for continuous subcutaneous administration. The administration was started from the age of 10 weeks and continued after replacement of the osmotic pump with a fresh one 4 weeks later. Seven weeks after the start of administration, the mice were anatomized, and the T9 regions of their spinal cords were extracted. Nissl-stained sections were prepared, and the number of motor neurons was histologically identified. Three non-adjacent sections were used per individual to measure the number of motor neurons present in the anterior horn. The measurement value of each group was calculated as a relative value when the average number of motor neurons in the control group was defined as 100%.

[5] = tested on: SOD1^G93A mice; experiment: Repeated subcutaneous human ghrelin from the age of 10 weeks: body weight, food intake, muscle strength, survival (Example 5); assay type: in vivo, mouse
Procedure: In the experiment, 10-week-old SOD1^G93A mice were used, which were divided into 2 groups: a vehicle group and a human ghrelin group. Human ghrelin (1 mg/kg) or a vehicle (5% mannitol solution) was subcutaneously administered thereto twice a day from the age of 10 weeks until death. Their body weights and feed weights were measured before the start of administration and after 8-weeks of administration to calculate the amount of change in body weights and the food intakes. The forelimb muscle strengths were measured using a rat/mouse simple sthenometer; 200 g scale (O'HARA & CO., LTD.) before the start of administration and after 8-weeks of administration. The survival period of each individual was also analyzed.

[6] = tested on: SOD1^G93A mice; experiment: Continuous subcutaneous human ghrelin under restricted feeding: body weight, skeletal muscle, motor neurons, muscle strength (Example 6); assay type: in vivo, mouse; settings: 50 μg/day continuous subcutaneous
Source text: In this Example, SOD1^G93A mice were raised under restricted feeding by which the daily food intake of the SOD1^G93A mice under voluntary intake conditions was set to approximately 90%. […] The administered ghrelin was examined for its effects on body weight, skeletal muscle mass, muscle strength, the number of motor neurons, and mRNA expression of Atrogin-1 and Muscle RING-finger protein-1 (MuRF1), which are both involved in skeletal muscle wasting.
(§2) In the experiment, 10-week-old SOD1^G93A and WT mice were used. The WT mice were divided into 2 group, one of which was raised under voluntary intake conditions (WT-control group) and the other of which was given 2.8 to 2.9 g/day which corresponded to approximately 90% of the daily food intake under voluntary intake conditions of the SOD1^G93A mice (WT-restricted feeding group).
(§3) Human ghrelin (50 μg/day, approximately 2 mg/kg/day) was dissolved in a vehicle (saline solution) to prepare a dosing solution. An osmotic pump (ALZET® MINI-OSMOTIC PUMP MODEL 1004, DURECT Corporation) filled with the dosing solution or a saline solution was subcutaneously implanted into the back of each mouse for continuous subcutaneous administration. The administration was started from the age of 10 weeks, and the osmotic pump was replaced with a fresh one 4 weeks later.
Their body weights were measured at the start day of administration and after 6 weeks to calculate the amount of change in body weight.
The forelimb muscle strength was measured using a rat/mouse simple sthenometer; 200 g scale (O'HARA & CO., LTD.) 7 weeks after the start of administration.
The lower-body skeletal muscle masses of the mice were measured using X-ray CT (Latheta LCT-200, Hitachi Aloka Medical, Ltd.) before the start of administration (at the age of 10 weeks) and after 7 weeks to determine the amount of change in skeletal muscle mass.
Then, the mice were anatomized, and the T9 regions of their spinal cords were extracted. Nissl-stained sections were prepared, and the number of motor neurons was histologically identified. Three non-adjacent sections were used per individual to measure the number of motor neurons present in the anterior horn. The measurement value of each group was calculated as a relative value when the average number of motor neurons in the WT-control group was defined as 100%.

[7] = tested on: Atrogin-1 mRNA; experiment: Atrogin-1 mRNA expression in gastrocnemial muscle by quantitative PCR under restricted feeding (Example 6); assay type: in vivo, mouse; settings: relative to WT-control group = 100%, 7 weeks after start
Procedure: as §2, §3
(§4) The gastrocnemial muscles were isolated, and after mRNA extraction, the Atrogin-1 and MuRF1 mRNA expression levels were measured by quantitative PCR. The measurement value of each group was calculated as a relative value when the average mRNA expression level in the WT-control group was defined as 100%.

[8] = tested on: MuRF1 mRNA; experiment: MuRF1 mRNA expression in gastrocnemial muscle by quantitative PCR under restricted feeding (Example 6); assay type: in vivo, mouse; settings: relative to WT-control group = 100%, 7 weeks after start
Procedure: as §2, §3, §4

[9] = tested on: SOD1^G93A mice; experiment: Survival period with continuous subcutaneous human ghrelin from the age of 16 weeks (Example 8); assay type: in vivo, mouse; settings: 50 μg/day continuous subcutaneous from age 16 weeks
Procedure: as §1, with “experiment, 16-week-old” for “experiment, 10-week-old”, “of 16” for “of 10”, “weeks. The survival period of each individual was analyzed.” for “weeks.”

[10] = 50 μg/day continuous subcutaneous from age 10 weeks, after 8-weeks of administration, mean ± SE
[11] = 1 mg/kg subcutaneously twice a day from age 10 weeks, after 8-weeks of administration, mean ± SE

## CN(C)N(C)C(=O)[C@@]1(Cc2ccccc2)CCCN(C(=O)[C@@H](Cc2c[nH]c3ccccc23)NC(=O)C(C)(C)N)C1 [Anamorelin, 2-Amino-N-{(1R)-2-[3-benzyl-3-(N,N′,N′-trimethylhydrazinocarbonyl)piperidin-1-yl]-1-((1H-indol-3-yl)-2-oxoethyl)-2-methylpropionamide}]
[1]
  Survival period: 136 ± 2 (31) day
  Amount of change in body weight: 0.9 ± 0.2 (31) g
  Food intake: 139.5 ± 2.5 (31) g

## C[C@H](NC(=O)[C@@H](Cc1c[nH]c2ccccc12)NC(=O)[C@@H](N)Cc1c[nH]cn1)C(=O)N[C@@H](Cc1c[nH]c2ccccc12)C(=O)N[C@H](Cc1ccccc1)C(=O)N[C@@H](CCCCN)C(N)=O [GHRP-6, L-Histidyl-D-tryptophyl-L-alanyl-L-tryptophyl-D-phenylalanyl-L-lysinamide] (H-H[dW]AW[dF]K-NH2)
[1]
  Survival period: 138 ± 2 (30) day
  Amount of change in body weight: 1.9 ± 0.2 (30) g
  Food intake: 142.7 ± 2.1 (30) g

## C[C@H](NC(=O)[C@@H](Cc1ccc2ccccc2c1)NC(=O)[C@@H](C)N)C(=O)N[C@@H](Cc1c[nH]c2ccccc12)C(=O)N[C@H](Cc1ccccc1)C(=O)N[C@@H](CCCCN)C(N)=O [Pralmorelin, D-Alanyl-D-(2-naphthyl)alanyl-L-alanyl-L-tryptophyl-D-phenylalanyl-L-lysinamide] (H-[dA][d2Nal]AW[dF]K-NH2)
[2]
  Increase of the proportion of PC-12 cells having dendrites and axons 1.5 times larger than the size of the cells, compared with a control group: approximately 1.2 times

## Human ghrelin: peptide of 28 amino acids (SEQ ID NO: 1), hydroxy group of the 3rd residue (serine) acylated with n-octanoyl group; endogenous GHS-R ligand (GSS(Octanoyl)FLSPEHQRVQQRKESKKPPAKLQPR; listed as Homo sapiens)
[3]; 50 μg/day continuous subcutaneous from age 10 weeks
  Survival period longer on average than the survival days of the vehicle group: 13.8%
[3]; [10]
  Amount of change in body weight: 2.6 ± 0.4 (15) g
  Food intake: 188.2 ± 3.6 (15) g
[3]; 50 μg/day continuous subcutaneous from age 10 weeks, mean ± SE
  Survival period: 173 ± 4 (15) day
[3]; 50 μg/day continuous subcutaneous, after 6-weeks of administration (16th week of age), mean ± SE
  Forelimb muscle strength: 0.96 ± 0.05 (15) N
[3]; 50 μg/day continuous subcutaneous, after 8-weeks of administration, X-ray CT, mean ± SE
  Lower-body skeletal muscle mass: 5.7 ± 0.3 (15) g
[3]; 50 μg/day continuous subcutaneous, after 8-weeks of administration, mean ± SE
  Plasma total cholesterol concentration: 85.8 ± 4.0 (15) mg/dL
[4]
  The number of motor neurons: 84 ± 7 (7)*^,## %
[5]; 1 mg/kg subcutaneously twice a day from age 10 weeks
  Survival period longer on average than the survival days of the vehicle group: 21.8%
[5]; 1 mg/kg subcutaneously twice a day from age 10 weeks until death, mean ± SE
  Survival period: 179 ± 8 (13) day
[5]; [11]
  Amount of change in body weight: 2.1 ± 0.4 (13) g
  Food intake: 176.2 ± 3.5 (13) g
[5]; 1 mg/kg subcutaneously twice a day, from age 10 weeks to after 8-weeks of administration, mean ± SE
  Change in forelimb muscle strength: −0.08 ± 0.07 (13) N
[6]; relative to WT-control group = 100%, restricted feeding, T9 anterior horn
  The number of motor neurons: 66 ± 5 %
[6]; restricted feeding 2.8 to 2.9 g/day, 6 weeks after start
  Amount of change in body weight: −1.4 ± 0.7**^,## g
[6]; restricted feeding, 7 weeks after start
  Forelimb muscle strength: 0.77 ± 0.06 N
[6]; restricted feeding, 7 weeks after start, X-ray CT
  Amount of change in lower-body skeletal muscle: −0.9 ± 0.2**^,# g
[7]
  Atrogin 1 mRNA expression level: 205 ± 34 %
[8]
  MuRF1 mRNA expression level: 207 ± 36 %
[9]
  Survival period longer on average than the survival days of the vehicle group: 17.6%
[9]; mean ± SE
  Survival period: 180 ± 11 (9) day
